{"source": "patent US20130289099A1", "about": "“ABCG1 GENE AS A MARKER AND A TARGET GENE FOR TREATING OBESITY” (UNIVERSITE PIERRE ET MARIE CURIE (PARIS 6), priority 2010, published 2013)", "key": {"[1]": {"test_system": "SDC1, SDC2, VLDL-r, LRP, apoE, LDL-r", "test": "Relative mRNA levels of proteoglycan core proteins, lipoprotein receptors and apoE in HMDM", "assay_type": "cell-based, human", "procedure": "(§1) Ten-day differentiated HMDM were grown in 24-well plates and transfected with 50 nM control siRNA (Dharmacon) or siRNA targeting human ABCG1 using lipofectamine RNAiMax (Invitrogen) according to the manufacturer's instructions. Transfection of 3T3-L1 preadipocytes and mature adipocytes with siRNA was achieved using the Nucleofector® technology (Lonza) according to the manufacturer's protocol. For each experiment, 2×10^6 cells and 100 pmol siRNA were diluted in 100 μl of V solution and processed with A-033 program.\n(§2) Twenty-four hours following transfection with siRNA, Control and ABCG1 KD cells were washed twice with cold PBS and total RNA was extracted using a NucleoSpin RNA II kit (Macherey-Nagel) according to the manufacturer's instructions. Reverse transcription of RNA and real time quantitative PCR using a LightCycler LC480 (Roche) were performed as previously described (Larrede et al., 2009). Expression data were based on the crossing points calculated with the software for LightCycler data analysis and corrected for PCR efficiencies of the target and the reference gene. When indicated, data were expressed as a fold change in mRNA expression relative to control values."}, "[2]": {"test_system": "human ABCG1", "test": "siRNA silencing of ABCG1 in HMDM, Western blot of total ABCG1 protein", "assay_type": "cell-based", "details": "HMDM transfected with 50 nM siRNA vs control siRNA", "procedure": "(§3) Human Macrophages. Human THP-1 monocytic cells (ATCC) and a THP-1 clone stably transfected with an shRNA targeting human ABCG1, in which ABCG1 expression is stably knocked down (ABCG1 SKD), were cultured and differentiated into macrophage-like cells as previously described (Larrede et al., 2009). Circulating human monocytes were isolated from the blood of individual healthy normolipidemic donors (Etablissement Français du Sang, EFS) on Ficoll gradients (Ficoll-Paque PLUS, GE Healthcare) and subsequently differentiated into human macrophages (HMDM) following the procedure previously reported (Larrede et al., 2009).\nSilencing of ABCG1 expression was performed by application of siRNA oligonucleotides (Dharmacon) targeted to the cDNA sequence of either the human ABCG1 gene (Genebank #AY048757):\nTen-day differentiated HMDM were grown in 24-well plates and transfected with 50 nM control siRNA (Dharmacon) or siRNA targeting human ABCG1 using lipofectamine RNAiMax (Invitrogen) according to the manufacturer's instructions. […]\nCell proteins were extracted using 200 μL M-PER reagent (Pierce) containing protease inhibitors and were subsequently separated on a 4-12% Bis-Tris gel (Invitrogen). […] ABCG1 was detected using rabbit anti-hABCG1 (NB400-132; Novus) at 1:500 and goat anti-rabbit/HRP (Dako) at 1:15000."}, "[3]": {"test_system": "LPL", "test": "Confocal microscopy of LPL at the cell surface of HMDM", "assay_type": "cell-based, human", "details": "ABCG1 KD HMDM vs control", "procedure": "Cells were blocked for 60 minutes with 3% BSA in PBS and then incubated with an anti-hLPL antibody (Abcam; 1:300) overnight at 4° C. After washing, a biotinylated goat anti-mouse IgG secondary antibody (1:1000; BD Pharmingen) was added, followed by the addition of streptavidin-horseradish peroxidase. The signal was enhanced using the tyramide signal amplification (TSA) kit (PerkinElmer) according to the manufacturer's protocol; cells were counterstained for nuclei with DAPI (Invitrogen). Confocal microscopy was performed using a Right confocal microscope Olympus FV-1000 with a 60× objective."}, "[4]": {"test_system": "human monocyte-derived macrophages (HMDM)", "test": "VLDL-induced cellular triglyceride and cholesterol accumulation in HMDM", "assay_type": "cell-based", "details": "50 μg/mL VLDL, 24 h", "procedure": "(§4) Quantification of total cellular triglyceride and cholesterol mass was performed as previously described (Milosavljevic et al., 2003).\nas §1"}, "[5]": {"test_system": "LPL", "test": "Secreted LPL activity in culture media of HMDM after heparin", "assay_type": "cell-based, human", "details": "ABCG1 KD HMDM, after heparin treatment, p=0.02", "procedure": "as §3\n(§5) Cell culture medium from either macrophage or adipocyte cultures was replaced by a serum-free medium containing 10 U/mL heparin (Choay) and the cells were subsequently incubated for 24 h at 37° C. Culture medium was then collected and stored at −80° C. until determination of LPL activity and cells were lysed overnight in 0.2 N NaOH. Cell protein was quantified using the BCA assay (Pierce). LPL activity was determined using a 50-μl aliquot of culture medium ( 1/10 of total volume), or plasma when indicated, according to the procedure previously described (Stengel et al., 1998). Results are expressed as units of LPL activity (1 U of LPL activity correspond to 1 nmol free fatty acid liberated/min/mg cell protein). […]"}, "[6]": {"test_system": "LPL", "test": "Flow cytometry of cell surface LPL in THP-1 macrophages", "assay_type": "cell-based, human", "details": "ABCG1 KD THP-1 macrophages, p<0.05", "procedure": "as §3\nHuman THP-1 macrophages were cultured in 12-well plates (2.106 cells/well) and incubated in serum-free media in the presence or in the absence of 10 U/mL heparin (Choay) for 24 h at 37° C. following siRNA transfection. Cells were then washed and harvested in cold PBS. After brief centrifugation (2000 rpm, […]) at 4° C., cells were pre-incubated with 100 μl of human Fc Blocker (BD Pharmingen; 1:400 in PBS/BSA 1%) for 10 min at 4° C., and incubated with a monoclonal mouse antibody directed against human LPL (abcam; 1:100) for a further 15 min at 4° C. […] Cells were analyzed on an FC 500 flow cytometer (Beckman Coulter) using Epics XL32 software."}, "[7]": {"test_system": "LPL mRNA", "test": "LPL mRNA levels by real-time quantitative PCR in HMDM", "assay_type": "cell-based, human", "details": "ABCG1 KD HMDM, p<0.05", "procedure": "as §1, §2"}, "[8]": {"test_system": "3T3-L1 preadipocytes", "test": "Cellular triglyceride content during maturation of 3T3-L1 preadipocytes into adipocytes", "assay_type": "cell-based, mouse", "details": "silencing in preadipocytes at D0; after 4 days of differentiation, p<0.05", "procedure": "(§6) 3T3-L1 adipocytes. The 3T3-L1 preadipocytes (ATCC) were maintained in Dulbecco's modified Eagle medium (DMEM) supplemented with 10% calf serum and 2 mM glutamine. Differentiation of confluent preadipocytes was initiated with 250 nM insulin, 1250 nM dexamethasone and 250 μM 3-isobutyl-methyl-1-xanthine) in DMEM (4.5 g/L glucose) supplemented with 10% FBS. After 3 days, the culture medium was switched to DMEM (4.5 g/L glucose) supplemented with 10% FBS and 100 nM Insulin for 2 days. Then, 3T3-adipocytes were allowed to mature in DMEM (4.5 g/L glucose) containing 10% FBS, which was replaced every other day for 15 days.\nas §4, §1"}, "[9]": {"test_system": "LPL", "test": "Secreted LPL activity in culture media of 3T3-L1 adipocytes", "assay_type": "cell-based, mouse", "details": "ABCG1 KD 3T3-L1 adipocytes, p<0.05", "procedure": "as §6, §5"}, "[10]": {"test_system": "ABCG1", "test": "ABCG1 knockdown efficiency (mRNA) in 3T3-L1 adipocytes", "assay_type": "cell-based, mouse", "details": "mature 3T3-L1 adipocytes, p<0.0005", "procedure": "as §6, with “15 days. […]” for “15 days.”\nas §2"}}, "note": "{P} = phosphate", "data": [{"molecule": "5′-UCAUUGGCCUGCUGUACUU-UU-3 / 5′-P-AAGUACAGCAGGCCAAUGA-UU-3′ (sense UCAUUGGCCUGCUGUACUUUU; antisense AAGUACAGCAGGCCAAUGAUU; siRNA; sense: RNA, backbone not given here; antisense: RNA, 5' {P}, backbone not given here) [siRNA specific for the human ABCG1 gene]", "values": [{"measurement": "relative mRNA levels of SDC1, SDC2, VLDL-r, LRP and apoE", "setting": "[1]; ABCG1 KD human macrophages vs control", "value": "not altered"}, {"measurement": "LDL-receptor (LDL-r) expression, induction vs control cells", "setting": "[1]; ABCG1 KD macrophages, p<0.01", "value": 2, "unit": "fold"}, {"measurement": "ABCG1 expression (total ABCG1 protein, Western blot)", "setting": "[2]", "value": "almost complete abolition"}, {"measurement": "abundance of LPL detected at the cell surface after heparin treatment", "setting": "[3]; 10 U/mL heparin", "value": "still remained higher than that in control HMDM"}, {"measurement": "LPL expression at the cell surface (confocal microscopy)", "setting": "[3]; without heparin", "value": "much more pronounced than in control cells"}, {"measurement": "VLDL-induced accumulation of cholesterol", "setting": "[4]; ABCG1 KD HMDM", "value": "completely abolished"}, {"measurement": "VLDL-induced accumulation of TG, change vs control cells", "setting": "[4]; ABCG1 KD HMDM, p<0.01", "value": "−38", "unit": "%"}, {"measurement": "secreted LPL activity, change vs control HMDM", "setting": "[5]", "value": "−52", "unit": "%"}, {"measurement": "expression of LPL at the cell surface (flow cytometry), change vs control cells", "setting": "[6]", "value": "+48%"}, {"measurement": "LPL expression (mRNA), change vs control HMDM", "setting": "[7]", "value": "+28%"}]}, {"molecule": "5′-GCGAAGCUGUACCUGGAUU-UU / 5′-P-AAUCCAGGUACAGCUUCGC-UU-3′ (sense GCGAAGCUGUACCUGGAUUUU; antisense AAUCCAGGUACAGCUUCGCUU; siRNA; sense: RNA, backbone not given here; antisense: RNA, 5' {P}, backbone not given here) [siRNA targeting mouse Abcg1]", "values": [{"measurement": "intracellular TG accumulation during adipocyte maturation, change vs control cells", "setting": "[8]", "value": "−22", "unit": "%"}, {"measurement": "LPL activity in media, change vs control cells", "setting": "[9]", "value": "−81", "unit": "%"}, {"measurement": "inhibition of ABCG1 (mRNA), change vs control", "setting": "[10]", "value": "−77", "unit": "%"}]}, {"molecule": "CCCCCCCCCCC[C@@H](C[C@@H]1OC(=O)[C@H]1CCCCCC)OC(=O)[C@H](CC(C)C)NC=O", "note": "[THL, Tetrahydrolipstatin, reference compound]", "values": [{"measurement": "TC accumulation induced by VLDL, change", "setting": "[4]; control HMDM, 10 μM THL", "value": "−75", "unit": "%"}, {"measurement": "TG accumulation induced by VLDL, change", "setting": "[4]; control HMDM, 10 μM THL", "value": "−43", "unit": "%"}]}]}
